This is an account of results in publication doi:10.1101/2024.08.19.608619, “Discovery of potent SARS-CoV-2 nsp3 macrodomain inhibitors uncovers lack of translation to cellular antiviral response” (bioRxiv, 2024).

Read-outs that look alike come from different tables or passages of the source.

What all share (assay): biochemical
What all share (parameters): In vitro kinase panel profiling, per cent remaining kinase activity at 10 uM

Assay [1] addresses T1, PI3 Kinase (p110δ/p85α)(h) (Homo sapiens, UniProt O00329).
T1 construct: gene PIK3CD
As to conditions: atp_concentration=200, read-out: % of control remaining. An excerpt: (§1) We derisk potential for off-target activity by profiling the compound in a CEREP panel, a standard secondary pharmacology assessment, as well as a kinase panel to derisk a potential hinge-binding motif in our leads, and a PARP panel to derisk activity against human […]. Reassuringly, the compounds are selective, with the only off-targets being moderate human CHRM2 and KOR receptors activity associated with ASAP-0011198.

Assay [2] addresses EGFR(h) (Homo sapiens, UniProt P00533). As to conditions: atp_concentration=10, read-out: % of control remaining.
From the text: as §1

For assay [3], the target named is T2, TAK1(h) (Homo sapiens, UniProt O43318).
T2 construct: gene MAP3K7
T2 sequence (O43318 1-606): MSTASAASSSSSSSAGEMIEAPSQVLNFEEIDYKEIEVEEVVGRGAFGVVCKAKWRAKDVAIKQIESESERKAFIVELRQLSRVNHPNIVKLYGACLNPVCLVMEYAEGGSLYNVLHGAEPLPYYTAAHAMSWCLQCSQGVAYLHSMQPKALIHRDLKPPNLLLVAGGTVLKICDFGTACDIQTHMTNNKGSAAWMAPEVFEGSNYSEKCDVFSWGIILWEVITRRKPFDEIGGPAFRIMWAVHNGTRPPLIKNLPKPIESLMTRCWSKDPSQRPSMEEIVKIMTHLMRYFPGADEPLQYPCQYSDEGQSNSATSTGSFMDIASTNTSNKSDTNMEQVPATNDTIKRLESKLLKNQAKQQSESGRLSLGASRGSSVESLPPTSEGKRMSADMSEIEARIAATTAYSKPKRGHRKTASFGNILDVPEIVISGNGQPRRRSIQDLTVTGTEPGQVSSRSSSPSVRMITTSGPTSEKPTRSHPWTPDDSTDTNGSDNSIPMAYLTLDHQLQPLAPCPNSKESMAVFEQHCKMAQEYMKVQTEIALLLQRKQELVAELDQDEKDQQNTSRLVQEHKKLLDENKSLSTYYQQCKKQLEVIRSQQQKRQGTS
As to conditions: atp_concentration=45, read-out: % of control remaining.
From the text: as §1

The target of assay [4] is T3, Rse(h) (Homo sapiens, UniProt Q06418).
T3 construct: gene TYRO3
T3 sequence (Q06418 1-890): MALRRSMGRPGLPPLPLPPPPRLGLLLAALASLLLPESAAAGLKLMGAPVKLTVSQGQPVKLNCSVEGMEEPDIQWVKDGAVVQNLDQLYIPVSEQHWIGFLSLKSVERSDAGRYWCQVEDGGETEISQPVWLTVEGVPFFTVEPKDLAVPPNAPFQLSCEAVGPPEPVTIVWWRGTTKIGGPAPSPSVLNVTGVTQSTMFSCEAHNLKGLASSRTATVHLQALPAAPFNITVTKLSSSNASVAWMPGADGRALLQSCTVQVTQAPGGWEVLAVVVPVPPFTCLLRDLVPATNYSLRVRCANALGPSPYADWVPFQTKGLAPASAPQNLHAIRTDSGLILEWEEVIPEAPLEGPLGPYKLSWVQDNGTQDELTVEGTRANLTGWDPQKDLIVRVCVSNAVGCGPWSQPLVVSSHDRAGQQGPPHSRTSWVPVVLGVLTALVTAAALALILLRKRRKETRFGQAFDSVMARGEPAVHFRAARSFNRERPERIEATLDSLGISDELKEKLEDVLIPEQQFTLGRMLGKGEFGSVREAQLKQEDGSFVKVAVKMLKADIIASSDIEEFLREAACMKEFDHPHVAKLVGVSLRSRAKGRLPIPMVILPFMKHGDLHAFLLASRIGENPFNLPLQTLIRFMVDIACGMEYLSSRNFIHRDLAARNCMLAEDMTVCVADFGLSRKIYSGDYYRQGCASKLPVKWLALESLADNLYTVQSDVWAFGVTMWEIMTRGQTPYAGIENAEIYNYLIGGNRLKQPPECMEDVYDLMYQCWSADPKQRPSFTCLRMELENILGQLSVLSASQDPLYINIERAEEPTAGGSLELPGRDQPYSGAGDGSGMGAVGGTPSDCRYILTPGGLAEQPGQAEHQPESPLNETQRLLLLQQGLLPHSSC
As to conditions: atp_concentration=45, read-out: % of control remaining.
From the text: as §1

The target in assay [5] is T4, p70S6K(h) (Homo sapiens, UniProt P23443).
T4 construct: gene RPS6KB1
As to conditions: atp_concentration=15, read-out: % of control remaining.
From the text: as §1

Assay [6] deals with mTOR(h) (Homo sapiens, UniProt P42345). As to conditions: atp_concentration=70, read-out: % of control remaining.
From the text: as §1

Assay [7] addresses T5, CHK1(h) (Homo sapiens, UniProt O14757).
T5 construct: gene CHEK1
T5 sequence (O14757 1-476): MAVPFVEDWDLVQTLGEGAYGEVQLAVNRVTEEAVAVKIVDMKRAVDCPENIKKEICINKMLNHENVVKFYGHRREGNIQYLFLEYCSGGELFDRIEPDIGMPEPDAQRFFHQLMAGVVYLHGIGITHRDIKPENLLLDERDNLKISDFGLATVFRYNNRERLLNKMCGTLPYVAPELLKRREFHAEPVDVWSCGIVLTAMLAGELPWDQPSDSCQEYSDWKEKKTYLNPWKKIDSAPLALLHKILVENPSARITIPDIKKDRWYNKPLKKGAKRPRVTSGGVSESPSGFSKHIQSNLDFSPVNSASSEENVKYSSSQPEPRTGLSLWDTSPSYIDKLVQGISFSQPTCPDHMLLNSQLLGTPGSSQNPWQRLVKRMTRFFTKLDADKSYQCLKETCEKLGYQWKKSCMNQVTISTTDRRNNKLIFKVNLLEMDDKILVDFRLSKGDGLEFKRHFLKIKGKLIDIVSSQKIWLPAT
As to conditions: atp_concentration=90, read-out: % of control remaining.
From the text: as §1

Chain of EGFR(h) (P00533 whole entry): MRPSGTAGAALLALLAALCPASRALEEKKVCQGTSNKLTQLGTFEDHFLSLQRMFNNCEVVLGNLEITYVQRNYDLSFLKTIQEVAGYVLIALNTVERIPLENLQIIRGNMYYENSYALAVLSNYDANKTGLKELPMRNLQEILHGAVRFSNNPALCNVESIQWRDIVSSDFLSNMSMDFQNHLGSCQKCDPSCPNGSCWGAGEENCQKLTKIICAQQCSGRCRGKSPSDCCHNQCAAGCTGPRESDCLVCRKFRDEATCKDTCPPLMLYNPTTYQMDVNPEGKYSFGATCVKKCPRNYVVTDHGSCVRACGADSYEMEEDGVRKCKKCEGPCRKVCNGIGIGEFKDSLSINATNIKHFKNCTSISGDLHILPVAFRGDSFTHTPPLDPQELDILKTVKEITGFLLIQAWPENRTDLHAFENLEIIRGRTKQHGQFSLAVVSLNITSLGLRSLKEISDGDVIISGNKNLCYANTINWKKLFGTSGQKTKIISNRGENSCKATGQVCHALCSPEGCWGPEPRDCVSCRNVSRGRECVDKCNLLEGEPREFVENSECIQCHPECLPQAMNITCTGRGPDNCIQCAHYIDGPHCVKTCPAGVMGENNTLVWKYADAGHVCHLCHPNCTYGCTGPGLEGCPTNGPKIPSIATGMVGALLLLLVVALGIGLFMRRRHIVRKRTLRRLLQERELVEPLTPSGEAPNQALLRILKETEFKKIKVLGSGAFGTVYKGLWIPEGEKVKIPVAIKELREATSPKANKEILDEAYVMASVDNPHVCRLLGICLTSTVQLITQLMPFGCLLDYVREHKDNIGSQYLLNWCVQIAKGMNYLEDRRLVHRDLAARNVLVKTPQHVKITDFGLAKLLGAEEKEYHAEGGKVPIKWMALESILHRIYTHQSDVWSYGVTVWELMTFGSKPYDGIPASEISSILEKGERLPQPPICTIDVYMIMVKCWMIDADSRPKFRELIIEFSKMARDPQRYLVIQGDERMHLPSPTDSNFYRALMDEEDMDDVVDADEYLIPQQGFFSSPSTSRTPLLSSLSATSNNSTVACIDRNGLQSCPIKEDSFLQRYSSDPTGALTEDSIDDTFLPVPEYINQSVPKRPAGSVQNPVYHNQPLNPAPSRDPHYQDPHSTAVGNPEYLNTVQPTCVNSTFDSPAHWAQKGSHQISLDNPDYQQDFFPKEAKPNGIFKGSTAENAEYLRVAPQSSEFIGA
T4 sequence (P23443 whole entry): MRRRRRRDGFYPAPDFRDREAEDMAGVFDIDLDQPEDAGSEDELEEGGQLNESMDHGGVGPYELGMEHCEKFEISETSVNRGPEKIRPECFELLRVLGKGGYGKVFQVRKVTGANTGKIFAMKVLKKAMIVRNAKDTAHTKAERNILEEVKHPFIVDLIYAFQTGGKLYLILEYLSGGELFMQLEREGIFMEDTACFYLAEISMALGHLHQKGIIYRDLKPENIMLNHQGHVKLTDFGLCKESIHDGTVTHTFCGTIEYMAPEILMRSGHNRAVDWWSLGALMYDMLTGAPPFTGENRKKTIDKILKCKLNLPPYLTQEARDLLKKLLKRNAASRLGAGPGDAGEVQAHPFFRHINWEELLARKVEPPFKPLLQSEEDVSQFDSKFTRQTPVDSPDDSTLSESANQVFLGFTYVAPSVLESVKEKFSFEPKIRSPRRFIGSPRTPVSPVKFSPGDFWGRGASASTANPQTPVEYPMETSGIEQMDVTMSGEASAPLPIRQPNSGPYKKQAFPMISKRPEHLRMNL
T1 sequence (O00329 whole entry): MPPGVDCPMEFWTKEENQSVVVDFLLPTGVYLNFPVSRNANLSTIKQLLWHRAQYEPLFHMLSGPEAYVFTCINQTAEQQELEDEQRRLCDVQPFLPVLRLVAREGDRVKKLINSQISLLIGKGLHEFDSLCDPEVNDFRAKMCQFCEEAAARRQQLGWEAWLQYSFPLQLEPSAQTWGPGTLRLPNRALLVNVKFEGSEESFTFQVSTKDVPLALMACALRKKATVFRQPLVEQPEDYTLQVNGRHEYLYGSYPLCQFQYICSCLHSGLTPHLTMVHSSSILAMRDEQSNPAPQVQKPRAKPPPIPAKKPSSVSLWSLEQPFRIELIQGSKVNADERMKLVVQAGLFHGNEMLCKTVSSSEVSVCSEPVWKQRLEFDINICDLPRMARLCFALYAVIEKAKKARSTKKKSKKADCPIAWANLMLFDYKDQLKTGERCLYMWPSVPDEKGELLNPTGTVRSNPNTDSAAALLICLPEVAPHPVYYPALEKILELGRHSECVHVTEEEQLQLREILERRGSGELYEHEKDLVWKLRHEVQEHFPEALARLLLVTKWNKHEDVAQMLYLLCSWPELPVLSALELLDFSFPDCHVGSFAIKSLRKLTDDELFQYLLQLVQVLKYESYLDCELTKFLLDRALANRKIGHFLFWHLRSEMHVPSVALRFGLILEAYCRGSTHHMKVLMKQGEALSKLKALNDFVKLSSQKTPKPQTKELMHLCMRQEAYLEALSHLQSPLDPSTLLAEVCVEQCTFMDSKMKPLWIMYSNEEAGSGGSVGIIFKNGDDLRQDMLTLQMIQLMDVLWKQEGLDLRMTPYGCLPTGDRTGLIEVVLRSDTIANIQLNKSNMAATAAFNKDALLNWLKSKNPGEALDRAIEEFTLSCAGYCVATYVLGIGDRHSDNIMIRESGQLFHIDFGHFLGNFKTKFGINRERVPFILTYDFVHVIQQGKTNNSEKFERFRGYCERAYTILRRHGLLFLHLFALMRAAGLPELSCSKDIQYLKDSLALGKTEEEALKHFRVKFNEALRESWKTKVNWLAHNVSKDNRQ
T1 sequence (P27986 whole entry partner): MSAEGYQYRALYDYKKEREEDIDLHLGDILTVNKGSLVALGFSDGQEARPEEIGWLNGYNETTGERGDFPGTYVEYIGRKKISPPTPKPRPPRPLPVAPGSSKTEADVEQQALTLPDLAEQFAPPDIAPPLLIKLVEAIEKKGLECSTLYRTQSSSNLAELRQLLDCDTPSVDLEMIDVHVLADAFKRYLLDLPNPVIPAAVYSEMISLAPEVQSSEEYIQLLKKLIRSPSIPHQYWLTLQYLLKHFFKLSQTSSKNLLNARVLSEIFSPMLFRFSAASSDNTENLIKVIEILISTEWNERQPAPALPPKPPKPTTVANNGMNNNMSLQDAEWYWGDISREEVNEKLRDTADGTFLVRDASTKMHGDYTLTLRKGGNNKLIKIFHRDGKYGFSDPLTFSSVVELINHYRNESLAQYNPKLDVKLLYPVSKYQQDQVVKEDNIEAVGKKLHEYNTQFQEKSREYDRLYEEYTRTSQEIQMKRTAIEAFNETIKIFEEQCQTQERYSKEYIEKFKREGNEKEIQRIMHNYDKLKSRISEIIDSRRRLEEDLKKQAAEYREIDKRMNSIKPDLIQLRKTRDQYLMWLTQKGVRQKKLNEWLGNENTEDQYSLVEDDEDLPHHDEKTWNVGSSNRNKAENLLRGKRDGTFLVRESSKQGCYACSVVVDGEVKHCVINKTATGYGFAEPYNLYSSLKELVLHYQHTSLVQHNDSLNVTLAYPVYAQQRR

`CC(C)C(Nc1ncnc2[nH]ccc12)c1ccc2c(c1)S(=O)(=O)CCC2` (stereo not shown) [ASAP-0008327]: the remaining activity at 10 µM in assay [1] (batch_name=ASAP-0008327-001) worked out at 101%; in assay [2] (batch_name=ASAP-0008327-001) it was 102%; in assay [3] (batch_name=ASAP-0008327-001), 83%; in assay [4] (batch_name=ASAP-0008327-001) it was 115%; in assay [5] (batch_name=ASAP-0008327-001), 98%; in assay [6] (batch_name=ASAP-0008327-001), 102%. Besides, the remaining activity at 10 µM in assay [7] (batch_name=ASAP-0008327-001) was 84%.
Turning to `COc1ccc([C@@H](Cc2nnn[nH]2)NC(=O)c2ncnc3[nH]ccc23)cc1` [ASAP-0008340], the remaining activity at 10 µM came out at 99% in assay [1] (batch_name=ASAP-0008340-001); 96% in assay [2] (batch_name=ASAP-0008340-001); 88% in assay [3] (batch_name=ASAP-0008340-001); 88% in assay [4] (batch_name=ASAP-0008340-001); 81% in assay [5] (batch_name=ASAP-0008340-001); 95% in assay [6] (batch_name=ASAP-0008340-001). Also, in assay [7] (batch_name=ASAP-0008340-001), the remaining activity at 10 µM was 95%.
Turning to `CC(C)[C@@H](Nc1ncnc2[nH]c(-c3cnn(C)c3C#N)cc12)c1ccc2c(n1)OCCO2` [ASAP-0008418], the remaining activity at 10 µM in assay [1] (batch_name=ASAP-0008418-001) amounted to 55%; in assay [2] (batch_name=ASAP-0008418-001), 81%; in assay [3] (batch_name=ASAP-0008418-001) it was 103%; in assay [4] (batch_name=ASAP-0008418-001), 116%; in assay [5] (batch_name=ASAP-0008418-001), 82%; in assay [6] (batch_name=ASAP-0008418-001) it was 83%. For the same compound, the remaining activity at 10 µM in assay [7] (batch_name=ASAP-0008418-001) stood at 108%.
As to `CC(C)[C@H](Nc1ncnc2[nH]ccc12)c1ccc2c(c1)S(=O)(=O)CCC2` [ASAP-0008674], the remaining activity at 10 µM in assay [1] (batch_name=ASAP-0008674-002) is 99%; in assay [2] (batch_name=ASAP-0008674-002), 95%; in assay [3] (batch_name=ASAP-0008674-002) it was 90%; in assay [4] (batch_name=ASAP-0008674-002), 86%; in assay [5] (batch_name=ASAP-0008674-002), 103%; in assay [6] (batch_name=ASAP-0008674-002), 99%. Moreover, in assay [7] (batch_name=ASAP-0008674-002), the remaining activity at 10 µM was found to be 110%.
`CC(C)[C@H](Nc1ncnc2[nH]c(-c3cnn(C)c3C#N)cc12)c1ccc2c(n1)OCCO2` [ASAP-0010715]: the remaining activity at 10 µM worked out at 66% in assay [1] (batch_name=ASAP-0010715-002); 90% in assay [2] (batch_name=ASAP-0010715-002); 94% in assay [3] (batch_name=ASAP-0010715-002); 105% in assay [4] (batch_name=ASAP-0010715-002); 125% in assay [5] (batch_name=ASAP-0010715-002); 104% in assay [6] (batch_name=ASAP-0010715-002). Further, the remaining activity at 10 µM in assay [7] (batch_name=ASAP-0010715-002) is 119%.
For the compound `CC(C)[C@@H](Nc1ncnc2[nH]c(-c3cnn(C)c3C#N)cc12)c1ccc2c(n1)OCCO2` [ASAP-0010716], the remaining activity at 10 µM in assay [1] (batch_name=ASAP-0010716-002) came out at 61%; in assay [2] (batch_name=ASAP-0010716-002), 77%; in assay [3] (batch_name=ASAP-0010716-002) it was 100%; in assay [4] (batch_name=ASAP-0010716-002), 107%; in assay [5] (batch_name=ASAP-0010716-002), 106%; in assay [6] (batch_name=ASAP-0010716-002), 102%. Besides, in assay [7] (batch_name=ASAP-0010716-002), the remaining activity at 10 µM stood at 120%.
Take `CNCc1cc(-c2cc3c(N[C@@H](c4ccc5c(c4)S(=O)(=O)CCC5)C(C)C)ncnc3[nH]2)co1` [ASAP-0011176]: the remaining activity at 10 µM turned out to be 80% in assay [1] (batch_name=ASAP-0011176-002); 97% in assay [2] (batch_name=ASAP-0011176-002); 90% in assay [3] (batch_name=ASAP-0011176-002); 81% in assay [4] (batch_name=ASAP-0011176-002); 110% in assay [5] (batch_name=ASAP-0011176-002); 105% in assay [6] (batch_name=ASAP-0011176-002). Further, in assay [7] (batch_name=ASAP-0011176-002), the remaining activity at 10 µM turned out to be 111%.
